ChEMBL document CHEMBL3046865, “Antibacterial activity of alkyl gallates and related compounds against Ralstonia solanacearum” (2011)
The source made the active and inactive calls. No cut-off for these calls is given here.

Assays:
[1] = test system: Ralstonia solanacearum
[2] = test system: Ralstonia solanacearum; type: functional
[3] = test system: Ralstonia solanacearum; remark: listed apart in the source
[4] = test system: Ralstonia solanacearum; type: functional; remark: listed apart in the source
[5] = test system: Ralstonia solanacearum; type: functional; remark: listed apart in the source
[6] = test system: Ralstonia solanacearum; type: functional; remark: listed apart in the source

| Compound | DIZ [1] | diameter of the inhibition zone (DIZ) [2] [mm] | DIZ [3] | other results |
| --- | --- | --- | --- | --- |
| COC(=O)c1ccc(OC)cc1O | inactive | 11 |  |  |
| CCCCCCCCCCCCOC(=O)c1cc(O)c(O)c(O)c1 | inactive |  | inactive |  |
| CCCCCCCCCOC(=O)c1ccc(O)cc1 | inactive |  | inactive |  |
| COC(=O)c1cc(OC)cc(OC)c1 | inactive |  | inactive |  |
| COC(=O)c1ccccc1O | inactive |  | inactive |  |
| COc1cc(/C=C/C(=O)O)cc(OC)c1O | inactive |  | inactive |  |
| COc1cc(/C=C/C(=O)O)ccc1O | inactive |  | inactive |  |
| COc1ccc(/C=C/C(=O)O)cc1O | inactive |  | inactive |  |
| C[C@@H]1O[C@@H](OC[C@H]2O[C@@H](Oc3c(-c4ccc(O)c(O)c4)oc4cc(O)cc(O)c4c3=O)[C@H](O)[C@@H](O)[C@@H]2O)[C@H](O)[C@H](O)[C@H]1O | inactive |  | inactive |  |
| O=C(/C=C/c1ccc(O)c(O)c1)O[C@@H]1C[C@](O)(C(=O)O)C[C@@H](O)[C@H]1O | inactive |  | inactive |  |
| O=C(O)/C=C/c1ccc(O)c(O)c1 | inactive |  | inactive |  |
| O=c1c(O)c(-c2ccc(O)c(O)c2)oc2cc(O)cc(O)c12 | inactive |  | inactive |  |
| O=c1oc2c(O)c(O)cc3c(=O)oc4c(O)c(O)cc1c4c23 | inactive |  | inactive |  |
| O=C(O)c1cccc(O)c1 [3-HYDROXYBENZOIC ACID] | inactive | 14 |  |  |
| O=C(O)/C=C/c1ccccc1 [CINNAMIC ACID] | inactive | 13 |  |  |
| O=C(O)/C=C/c1ccc(O)cc1 [COUMARIC ACID] | inactive | 11 |  |  |
| CCOC(=O)c1cc(O)c(O)c(O)c1 [ETHYLGALLATE] |  | 42 |  | diameter of the inhibition zone (DIZ) [4]: 18 mm |

| Compound | DIZ [1] | diameter of the inhibition zone (DIZ) [2] [mm] | DIZ [3] | other results |
| --- | --- | --- | --- | --- |
| CCOC(=O)c1ccc(O)cc1 [ETHYLPARABEN] | inactive | 29 |  |  |
| COC(=O)c1cc(O)c(O)c(O)c1 [GALLIC ACID METHYL ESTER] |  | 54 |  | diameter of the inhibition zone (DIZ) [4]: 22 mm; diameter of the inhibition zone (DIZ) [5]: 18 mm; diameter of the inhibition zone (DIZ) [6]: 11 mm |
| O=C(O)c1cc(O)c(O)c(O)c1 [GALLIC ACID] | inactive | 12 |  |  |
| COC(=O)c1cccc(O)c1O [METHYL 2,3-DIHYDROXYBENZOATE] |  | 58 |  | diameter of the inhibition zone (DIZ) [4]: 13 mm |
| COC(=O)c1ccc(O)cc1O [METHYL 2,4-DIHYDROXYBENZOATE] | inactive | 32 |  |  |
| COC(=O)c1cc(O)ccc1O [METHYL 2,5-DIHYDROXYBENZOATE] | inactive | 43 |  |  |
| COC(=O)c1cc(O)cc(O)c1 [METHYL 3,5-DIHYDROXYBENZOATE] | inactive | 18 |  |  |
| COC(=O)c1cccc(O)c1 [METHYL 3-HYDROXYBENZOATE] | inactive | 23 |  |  |
| COC(=O)c1ccc(O)c(O)c1 [METHYL PROTOCATECHUATE] |  | 37 |  | diameter of the inhibition zone (DIZ) [4]: 11 mm |
| COC(=O)c1ccc(O)c(OC)c1 [METHYL VANILLATE] | inactive | 15 |  |  |
| COC(=O)c1ccc(O)cc1 [METHYLPARABEN] | inactive | 36 |  |  |
| O=C(O)/C=C/c1ccccc1O [O-COUMARIC ACID] | inactive | 16 |  |  |
| CCCCCCCCOC(=O)c1cc(O)c(O)c(O)c1 [OCTYL_GALLATE] |  | 12 |  | diameter of the inhibition zone (DIZ) [4]: 11 mm |
| O=C(O)c1ccc(O)cc1 [PARABEN] | inactive | 13 |  |  |
| CCCOC(=O)c1cc(O)c(O)c(O)c1 [PROPYL GALLATE] |  | 31 |  | diameter of the inhibition zone (DIZ) [4]: 11 mm |
| CCCOC(=O)c1ccc(O)cc1 [PROPYLPARABEN] | inactive | 17 |  |  |
| O=C(O)c1ccccc1O [SALICYLIC ACID] |  | 16 |  |  |
